Assay results as given in PubChem BioAssay AID248 (DTP/NCI, 2004).
Toxic doses and inconclusive results are not listed. Rule as the data show it: active = T/C of 150% or more; inactive = T/C below 125%.

Test system: L1210 leukemia ip in BDF1 mice, survival T/C
Experiment: NCI In Vivo Anticancer Drug Screen. Data for tumor model L1210 Leukemia (intraperitoneal) in B6D2F1 (BDF1) mice
Conditions: endpoint: mean survival time, higher = longer survival
Summary of the method: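 Antitumor effect is assessed in tumor-bearing animals. Survival in the compound arm is compared with a vehicle-dosed control arm and expressed as their quotient.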

[1] = dose: 100.0 mg/kg/injection, schedule: Q04DX002 (ip), vehicle: saline
[2] = dose: 200.0 mg/kg/injection, schedule: Q04DX002 (ip), vehicle: saline
[3] = dose: 100.0 mg/kg/injection, schedule: Q01DX001 (ip), vehicle: saline
[4] = dose: 200.0 mg/kg/injection, schedule: Q01DX001 (ip), vehicle: saline
[5] = dose: 400.0 mg/kg/injection, schedule: Q01DX001 (ip), vehicle: saline
[6] = dose: 50.0 mg/kg/injection, schedule: Q01DX001 (ip), vehicle: saline
[7] = dose: 50.0 mg/kg/injection, schedule: Q04DX002 (ip), vehicle: Klucel (hydroxypropylcellulose) (HPC)
[8] = dose: 100.0 mg/kg/injection, schedule: Q04DX002 (ip), vehicle: Klucel (hydroxypropylcellulose) (HPC)
[9] = dose: 100.0 mg/kg/injection, schedule: Q04DX002 (ip), vehicle: saline with Tween-80
[10] = dose: 200.0 mg/kg/injection, schedule: Q04DX002 (ip), vehicle: saline with Tween-80
[11] = dose: 100.0 mg/kg/injection, schedule: Q01DX009 (ip), vehicle: Klucel (hydroxypropylcellulose) (HPC)
[12] = dose: 200.0 mg/kg/injection, schedule: Q01DX009 (ip), vehicle: Klucel (hydroxypropylcellulose) (HPC)
[13] = dose: 400.0 mg/kg/injection, schedule: Q01DX009 (ip), vehicle: Klucel (hydroxypropylcellulose) (HPC)

Measured: T/C

CN(C)[C@@H]1C(=O)C(C(=O)NCNC2(C(=O)O)CCCC2)=C(O)[C@@]2(O)C(=O)C3=C(O)c4c(O)cccc4[C@@](C)(O)[C@H]3C[C@@H]12
inactive: dose: 62.0 mg/kg/injection, schedule: Q01DX Z (ip), vehicle: saline 95 % of control | dose: 125.0 mg/kg/injection, schedule: Q01DX Z (ip), vehicle: saline 98 % of control | dose: 250.0 mg/kg/injection, schedule: Q01DX Z (ip), vehicle: saline 114 % of control

CC1(C)OCC(C(O)C(O)C2COC(C)(C)O2)O1 (centres undefined)
inactive: [1] 96 % of control | [2] 104 % of control | dose: 400.0 mg/kg/injection, schedule: Q04DX002 (ip), vehicle: saline 101 % of control

O=C(O)CN1C(=O)CNC12CCCCC2
inactive: [3] 95 % of control | [4] 101 % of control | [5] 97 % of control

Cc1o[nH]c(=O)c1C
inactive: dose: 100.0 mg/kg/injection, schedule: Q04DX003 (ip), vehicle: saline with Tween-80 103 % of control | dose: 200.0 mg/kg/injection, schedule: Q04DX003 (ip), vehicle: saline with Tween-80 94 % of control | dose: 400.0 mg/kg/injection, schedule: Q04DX003 (ip), vehicle: saline with Tween-80 103 % of control

CN(C(=O)c1ccc(C(=N)N)cc1)c1ccccc1
inactive: dose: 100.0 mg/kg/injection, schedule: Q01DX001 (ip), vehicle: saline with Tween-80 100 % of control | dose: 200.0 mg/kg/injection, schedule: Q01DX001 (ip), vehicle: saline with Tween-80 100 % of control

CCCCCCCCC1OC1CCCCCCCC(=O)O (centres undefined)
inactive: dose: 25.0 mg/kg/injection, schedule: Q04DX002 (ip), vehicle: Klucel (hydroxypropylcellulose) (HPC) 108 % of control | [6] 90 % of control | [7] 101 % of control | [3] 97 % of control | [8] 101 % of control | [4] 101 % of control | [5] 90 % of control

CC1CCNC(C(C)C)CC1 (centres undefined)
inactive: [1] 96 % of control | [2] 115 % of control

O=P(O)(CO)CO
inactive: dose: 100.0 mg/kg/injection, schedule: Q04DX003 (ip), vehicle: saline 109 % of control | dose: 200.0 mg/kg/injection, schedule: Q04DX003 (ip), vehicle: saline 95 % of control

CCCCOP(=S)(N1CCCCC1)N1CCCCC1
inactive: [9] 96 % of control | [10] 96 % of control | dose: 400.0 mg/kg/injection, schedule: Q04DX002 (ip), vehicle: saline with Tween-80 107 % of control

CCN(CC)CCOC(=O)Cc1ccccc1
inactive: [11] 94 % of control | dose: 100.0 mg/kg/injection, schedule: Q04DX003 (ip), vehicle: Klucel (hydroxypropylcellulose) (HPC) 97 % of control | [12] 104 % of control | dose: 200.0 mg/kg/injection, schedule: Q04DX003 (ip), vehicle: Klucel (hydroxypropylcellulose) (HPC) 100 % of control | [13] 105 % of control | dose: 400.0 mg/kg/injection, schedule: Q04DX003 (ip), vehicle: Klucel (hydroxypropylcellulose) (HPC) 100 % of control

CSC(N)=NC#N
inactive: dose: 100.0 mg/kg/injection, schedule: Q04DX002 (ip), vehicle: other 111 % of control | dose: 200.0 mg/kg/injection, schedule: Q04DX002 (ip), vehicle: other 93 % of control | dose: 400.0 mg/kg/injection, schedule: Q04DX002 (ip), vehicle: other 107 % of control

O=S1(=O)Cc2ccccc2-c2ccccc2C1Cl (centres undefined)
inactive: [7] 100 % of control | [11] 98 % of control | [8] 100 % of control | [12] 100 % of control | dose: 200.0 mg/kg/injection, schedule: Q04DX002 (ip), vehicle: Klucel (hydroxypropylcellulose) (HPC) 97 % of control | [13] 96 % of control

CCCCN(CCCC)C(C)=O
inactive: [6] 94 % of control | dose: 50.0 mg/kg/injection, schedule: Q04DX002 (ip), vehicle: saline with Tween-80 109 % of control | [3] 100 % of control | [9] 95 % of control | [4] 100 % of control | [10] 98 % of control
